Test in all cases: NCI anticancer screen, dose series, 48 h
Test [1] relates to EKVX NSCLC.
Test [2] concerns HOP-62 NSCLC.
Test [3] has as its system MOLT-4 leukemia.
Test [4] relates to MALME-3M melanoma.
In test [5] the test system is SNB-19 CNS.
In test [6] the test system is K-562 leukemia.
Test [7] concerns UACC-62 melanoma.
Test [8] has as its system RXF 393 renal.
For test [9], the system named is SW-620 colon.
The subject of test [10] is SK-MEL-2 melanoma.

TGI and GI50 data for 26 molecules are collected here from PubChem BioAssay (NCI).

Each structure is given as a SMILES string.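 Where inhibition never reached the appropriate level, the endpoint shown equals the highest concentration tested. Otherwise, values were interpolated linearly from a five-concentration, 48-hour dose response in 96-well plates. GI50 marks 50% less growth. Definition used: TGI = concentration required for complete inhibition of growth.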

On to `CN1CCn2c(Br)ccc2C1=O`, for which the TGI in test [1], in [2], in test [3], in test [4], in [5] and in test [6] was above 100 µM each time. Also, the TGI in [7], in test [8], in [9] and in test [10] was above 100 µM each time.
Consider `C/C(=N\NC(N)=O)C(CN1CCCCC1)C(c1ccccc1)c1c(O)c2ccccc2oc1=O` (stereo not given), for which the TGI in test [1] is above 100 µM; in test [2] it was above 100 µM; in [3], above 94.4 µM; in test [4], above 100 µM; in test [5], above 100 µM; in test [6], above 100 µM. Besides, the TGI in [7], in test [8], in test [9] and in test [10] was above 100 µM each time.
`COc1cc([C@@H]2c3cc4c(cc3[C@@H](NC(=O)c3ccc(N)cc3)C3COC(=O)[C@@H]32)OCO4)cc(OC)c1O` (stereo not given in full): the TGI stood at 23.7 µM in test [1]; 3.95 µM in test [2]; 3.78 µM in test [3]; 19.8 µM in [4]; 17.4 µM in test [5]; 37.7 µM in test [6]. The TGI in test [7] came out at 10.9 µM; in test [8], 67.6 µM; in [9], 20.8 µM; in test [10] it was 28.3 µM.
On to `CN(C(=O)C1(C(=O)C=[N+]=[N-])CC1)c1ccccc1`, for which the TGI in [1], in [2], in [3], in [4], in test [5] and in [6] was above 100 µM throughout. The TGI in test [7], in [8], in test [9] and in test [10] was above 100 µM in each case.
With `O=C1/C(=C/c2ccccc2)CCc2ccc(Cl)nc21`, the TGI worked out at 38.3 µM in [1]; 42 µM in [2]; 5.93 µM in test [3]; 27.2 µM in [4]; 41.5 µM in test [5]; 6.78 µM in test [6]. Further, the TGI in test [7] turned out to be 22.8 µM; in [8], 24.8 µM; in test [9], 18.6 µM; in [10] it was 37.8 µM.
`O=c1[nH]c(=O)n(C2OC(COP(=O)(O)OP(=O)(O)O)C(O)C2O)cc1F` (stereo not given): the TGI was 42.5 µM in [1]; 29.6 µM in test [2]; above 50 µM in test [3]; above 50 µM in [4]; above 50 µM in test [5]; above 50 µM in test [6]. The TGI in [7] was above 42.6 µM; in test [8], 13.8 µM; in test [9], above 50 µM; in test [10], above 50 µM.
In the case of `CCCCc1c2c(nc3c1CCc1cc4c(nc1-3)-c1nc3c(c(CCCC)c1CC4)CCC/C3=C\c1ccccc1)/C(=C/c1ccccc1)CCC2`, the TGI in test [1], in test [2], in test [3], in test [4], in test [5] and in test [6] was above 100 µM in each case. Besides, the TGI in test [7] is above 100 µM; in test [8], 65.4 µM; in test [9] it was above 100 µM; in [10], above 100 µM.
Regarding `CC1=CC(O)C(O)C2(C)C1CC1OC(=O)C(O)C3C(C)C(O)C4(O)OCC13C42` (stereo not given), the TGI in test [1] is 197 µM; in test [2] it was 348 µM; in test [3], 65.6 µM; in test [4], 464 µM; in [5] it was 91.7 µM; in [6], above 394 µM. For the same molecule, the TGI was determined as 341 µM in [7], 51 µM in test [8], 224 µM in test [9] and 196 µM in [10].
As to `CC(C)(CO)CNc1nc(N)nc(Cl)c1N`, the TGI in test [1], in test [2], in test [3], in test [4], in test [5] and in [6] was above 100 µM in each case. The TGI in test [7], in test [8], in [9] and in test [10] was above 100 µM each time.
Turning to `CC(CCC(=O)O)[C@H]1CCC2[C@H]3C(CC[C@@]21C)[C@@]1(C)CCC(O)C[C@H]1C[C@@H]3O` (stereo not given in full), the TGI in test [1], in test [2], in [3], in [4], in test [5] and in test [6] was above 100 µM each time. Further, the TGI in test [7], in test [8], in test [9] and in test [10] was above 100 µM each time.
In the case of `Cc1cccc(NC(=O)C(=O)C2C(=O)NC(=O)NC2=O)c1C`, the TGI in test [1], in [2], in [3], in test [4], in [5] and in test [6] was above 100 µM each time. The TGI in test [7], in [8], in test [9] and in test [10] was above 100 µM each time.
For `N#Cc1c(NC(=O)c2ccccc2)sc2c1CCC(=O)C2`, the GI50 is 2.33 µM in test [1]; 2.55 µM in test [2]; 1.2 µM in test [3]; 1.65 µM in [4]; 3.48 µM in test [5]; 0.467 µM in [6]. Further, the GI50 in test [7] is 0.404 µM; in [8] it was 1.17 µM; in test [9], 0.524 µM; in test [10] it was 2.45 µM. The TGI in test [1] was 10.4 µM; in test [2], above 100 µM; in test [3], above 100 µM; in test [4], 3.92 µM; in [5], above 100 µM; in test [6] it was above 100 µM. The TGI in test [7] was found to be 1.93 µM; in [8], 3.65 µM; in test [9], 3.69 µM; in test [10], 8.65 µM.
`O=C(N/N=C(/c1nc2ccc(Cl)cc2[nH]c1=O)C(O)c1ccc(Cl)cc1Cl)c1ccncc1` (stereo not given): the TGI in test [1], in test [2], in [3], in [4], in test [5] and in [6] was above 100 µM throughout. In addition, the TGI in [7], in [8], in test [9] and in [10] was above 100 µM each time.
As to `CCOC(=O)c1ccc2nc(NC(=O)COC(=O)CSc3nc(C)cc(C)n3)sc2c1`, the TGI in test [1] was 62 µM; in test [2] it was 50.5 µM; in [3] it was above 100 µM; in test [4], above 100 µM; in test [5], above 100 µM; in test [6], above 100 µM. In addition, the TGI in test [7], in [8], in [9] and in [10] was above 100 µM each time.
`Cc1cc(S(=O)(=O)Nc2nnc3c(C(F)(F)F)cc(Cl)cn23)c(S)cc1Cl`: the TGI in test [1], in test [2], in test [3], in test [4], in test [5] and in test [6] was above 100 µM throughout. Further, the TGI in test [7], in test [8], in [9] and in [10] was above 100 µM throughout.
Regarding `CCC1(CC)C(=O)CC[C@@]2(C)C1=CC[C@H]1[C@@H]3CC[C@H](O)[C@@]3(C)CC[C@@H]12`, the TGI is above 100 µM in test [1]; 37 µM in [2]; 54.8 µM in test [3]; above 100 µM in [4]; above 100 µM in [5]; 37.3 µM in [6]. Further, the TGI is above 100 µM in test [7], above 100 µM in test [8], 63.1 µM in [9] and above 100 µM in [10].
As for `CCOC(=O)c1ccc(C(=O)C(C(C)=O)C(=O)OC(C)(C)C)n1C` (stereo not given), the TGI in test [1], in test [2], in test [3], in test [4], in test [5] and in [6] was above 100 µM each time. The TGI in [7], in test [8], in test [9] and in [10] was above 100 µM each time.
`NC(Cc1cc(I)c(O)c(I)c1)C(=O)O` (stereo not given): the TGI is above 316 µM in [1]; above 500 µM in test [2]; above 500 µM in test [3]; above 500 µM in [4]; above 500 µM in test [5]; above 500 µM in test [6]. The TGI is above 357 µM in [7], 449 µM in [8], above 500 µM in test [9] and above 500 µM in test [10].
Turning to `CN(C)CCOC(=O)COc1ccc(Cl)cc1`, the TGI in test [1], in test [2], in test [3], in test [4], in test [5] and in [6] was above 100 µM throughout. Further, the TGI in test [7], in test [8], in [9] and in test [10] was above 100 µM each time.
For `COC(=O)c1sc(=S)sc1SCc1ccccc1CSc1sc(=S)sc1C(=O)OC`, the TGI in [1], in test [2], in test [3], in test [4], in test [5] and in test [6] was above 100 µM throughout. In addition, the TGI in test [7], in test [8], in [9] and in [10] was above 100 µM each time.
For `COc1ccc(C2(c3ccc(OC)cc3)OC(=O)c3cccc4cccc2c34)cc1`, the TGI in [1] is 29 µM; in test [2] it was above 100 µM; in test [3], above 100 µM; in [4] it was above 100 µM; in [5], above 100 µM; in [6], above 100 µM. In addition, the TGI in [7], in test [8], in test [9] and in test [10] was above 100 µM each time.
For the molecule `Cc1nc(C)c(C(=O)Nc2cccc3c2C(=O)NC3=O)cc1C(=O)Nc1cccc2c1C(=O)NC2=O`, the TGI in [1], in test [2], in test [3], in test [4], in test [5] and in test [6] was above 100 µM in each case. Besides, the TGI in [7], in test [8], in test [9] and in test [10] was above 100 µM throughout.
Take `CN=C(Nn1cnnc1)OC`: the TGI in test [1], in test [2], in test [3], in test [4], in test [5] and in [6] was above 100 µM each time. The TGI in test [7], in [8], in [9] and in test [10] was above 100 µM throughout.
Regarding `CCCn1c(C23CC4CC(CC(C4)C2)C3)nc2ccc(Cl)cc2c1=O`, the TGI in test [1] was 95.4 µM; in [2], 70.1 µM; in test [3], above 100 µM; in test [4], above 100 µM; in test [5] it was above 100 µM; in [6], above 100 µM. Also, the TGI in [7] is above 100 µM; in test [8], 29 µM; in test [9], above 100 µM; in test [10] it was above 100 µM.
For `C#CCNC(Cc1cnc[nH]1)C(=O)O` (stereo not given), the TGI in test [1], in [2], in test [3], in [4], in test [5] and in [6] was above 100 µM throughout. The TGI in [7], in test [8], in [9] and in test [10] was above 100 µM in each case.
Regarding `S=C(N/N=C\C=N/NC(=S)N1CCCCCC1)N1CCCCCC1`, the TGI was above 100 µM in test [1]; above 60.9 µM in test [2]; above 100 µM in test [3]; above 93.7 µM in test [4]; above 100 µM in test [5]; above 100 µM in test [6]. For the same molecule, the TGI in test [7] is above 100 µM; in test [8] it was 90.9 µM; in test [9], above 100 µM; in test [10] it was above 100 µM.
